# Results from the supplement of paper PMC10307832.
# How the values were obtained:
# Test in all cases: relative viability (nuclei count vs DMSO), 5 days (fraction); higher = more cells survive
# Doramapimod + Trametinib = compound: Cc1ccc(-n2nc(C(C)(C)C)cc2NC(=O)Nc2ccc(OCCN3CCOCC3)c3ccccc23)cc1 [Doramapimod] + CC(=O)Nc1cccc(-n2c(=O)n(C3CC3)c(=O)c3c(Nc4ccc(I)cc4F)n(C)c(=O)c(C)c32)c1 [Trametinib] (partner 0.02 µM)
# Summary of the method: (§1)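 Relative viability was taken as the ratio of nuclei in treated wells to nuclei in vehicle wells. Lung cancer cell lines in 1536-well plates received compounds by pin tool one day after seeding, either one drug alone or a fixed anchor-drug dose plus five library-drug doses (not always all listed) in √10 steps. Nuclei were counted on 4× images after 5 days of treatment, and values are medians of duplicate plates.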
# [1] = compound: Cc1ccc(-n2nc(C(C)(C)C)cc2NC(=O)Nc2ccc(OCCN3CCOCC3)c3ccccc23)cc1 [Doramapimod] + CC(=O)c1c(C)c2cnc(Nc3ccc(N4CCNCC4)cn3)nc2n(C2CCCC2)c1=O [Palbociclib] (partner 0.5 µM)
# Summary of the method: as §1
# Doramapimod + Tozasertib = compound: Cc1ccc(-n2nc(C(C)(C)C)cc2NC(=O)Nc2ccc(OCCN3CCOCC3)c3ccccc23)cc1 [Doramapimod] + Cc1cc(Nc2cc(N3CCN(C)CC3)nc(Sc3ccc(NC(=O)C4CC4)cc3)n2)n[nH]1 [Tozasertib] (partner 0.1 µM)
# Summary of the method: as §1
# Doramapimod + Alpelisib = compound: Cc1ccc(-n2nc(C(C)(C)C)cc2NC(=O)Nc2ccc(OCCN3CCOCC3)c3ccccc23)cc1 [Doramapimod] + Cc1nc(NC(=O)N2CCC[C@H]2C(N)=O)sc1-c1ccnc(C(C)(C)C(F)(F)F)c1 [Alpelisib] (partner 2 µM)
# Summary of the method: as §1
cell line,measurement,setting,value
UMC-11,relative viability,Doramapimod + Trametinib; first compound 0.02 µM,0.689
same,relative viability,Doramapimod + Trametinib; first compound 0.06325 µM,0.638
same,relative viability,Doramapimod + Trametinib; first compound 0.2 µM,0.621
same,relative viability,Doramapimod + Trametinib; first compound 0.6325 µM,0.463
same,relative viability,Doramapimod + Trametinib; first compound 2 µM,0.539
same,relative viability,[1]; first compound 0.02 µM,0.342
same,relative viability,[1]; first compound 0.06325 µM,0.328
same,relative viability,[1]; first compound 0.2 µM,0.313
same,relative viability,[1]; first compound 0.6325 µM,0.323
same,relative viability,[1]; first compound 2 µM,0.308
same,relative viability,Doramapimod + Tozasertib; first compound 0.02 µM,0.2
same,relative viability,Doramapimod + Tozasertib; first compound 0.06325 µM,0.174
same,relative viability,Doramapimod + Tozasertib; first compound 0.2 µM,0.199
same,relative viability,Doramapimod + Tozasertib; first compound 0.6325 µM,0.195
same,relative viability,Doramapimod + Tozasertib; first compound 2 µM,0.205
same,relative viability,Doramapimod + Alpelisib; first compound 0.02 µM,1
same,relative viability,Doramapimod + Alpelisib; first compound 0.06325 µM,1.03
same,relative viability,Doramapimod + Alpelisib; first compound 0.2 µM,0.891
same,relative viability,Doramapimod + Alpelisib; first compound 0.6325 µM,0.989
same,relative viability,Doramapimod + Alpelisib; first compound 2 µM,0.876
